Test results: US6894059B1, “Compounds and methods for treatment of asthma, allergy and inflammatory disorders” (UCB S.A., priority 1999, dated 2005)

Experiments:
human cloned H1 receptor = molecular target: T1, human cloned H1 receptor (Homo sapiens, UniProt P35367); experiment: CHO-K1 H1R binding assay (3H-pyrilamine displacement); details: CHO-K1 membranes, 3H-pyrilamine 2 nM, 3 hours at 37° C.; read-out: CHOH1 KI
T1 construct: expressed in transfected cells; host or cells: CHO-K1
Method: CHO—K1 cells expressing the human cloned H1 receptor are grown to confluence in tissue culture dishes. Cells are harvested using D-PBS buffer (JRH Biosciences), kept at 4° C., centrifuging to pellet cells (4° C., 500 g, 10 min). The final cell pellet is homogenized and resuspended using Tris/sucrose buffer (20 mM Tris, 250 mM sucrose, pH 74 at 4° C. Aliquots of the membrane preparation are stored at −70° C.
On the day of assay, the membrane preparation is thawed and centrifuged (TLA100.3 rotor, 4° C., 15 min, 23,000 rpm). The pellet is resuspended in Tris/sucrose buffer initially and then diluted further as necessary using assay buffer A (50 mM Na/KPO4, 2 mM MgCl2, 0.5% (w/v) BSA, pH 7.5).
For the binding assay, the membrane preparation, test compound and ^3H-pyrilamine (2 nM final) in buffer A with 1% (v/v) DMSO final are incubated in a 96-well polypropylene plate for 3 hours at 37° C. Non-specific binding is determined in the presence of 10 μM pyrilamine. A 96-well harvester (Packard) is used to harvest the 96-well plate onto a GF/B filter plate pre-treated with 0.1% (v/v) PEI. The plate is counted in a Packard Topcounter after adding Microscint 20 (Packard) scintillation fluid. The Ki for each compound at the histamine H1 receptor is then calculated from these counts.

[1] = molecular target: T2, human 5-lipoxygenase enzyme (Homo sapiens, UniProt P09917); experiment: Inhibition of LTB4 production in human whole blood stimulated with calcium ionophore A23187; assay type: cell-based; details: A23187 50 μM, LTB4 by EIA, read-out: HWB IC50
T2 construct: Blood is drawn from normal human volunteers into tubes containing heparin; endogenous in cells; host or cells: human whole blood, heparinized, stimulated with A23187
T2 sequence (P09917 1-674): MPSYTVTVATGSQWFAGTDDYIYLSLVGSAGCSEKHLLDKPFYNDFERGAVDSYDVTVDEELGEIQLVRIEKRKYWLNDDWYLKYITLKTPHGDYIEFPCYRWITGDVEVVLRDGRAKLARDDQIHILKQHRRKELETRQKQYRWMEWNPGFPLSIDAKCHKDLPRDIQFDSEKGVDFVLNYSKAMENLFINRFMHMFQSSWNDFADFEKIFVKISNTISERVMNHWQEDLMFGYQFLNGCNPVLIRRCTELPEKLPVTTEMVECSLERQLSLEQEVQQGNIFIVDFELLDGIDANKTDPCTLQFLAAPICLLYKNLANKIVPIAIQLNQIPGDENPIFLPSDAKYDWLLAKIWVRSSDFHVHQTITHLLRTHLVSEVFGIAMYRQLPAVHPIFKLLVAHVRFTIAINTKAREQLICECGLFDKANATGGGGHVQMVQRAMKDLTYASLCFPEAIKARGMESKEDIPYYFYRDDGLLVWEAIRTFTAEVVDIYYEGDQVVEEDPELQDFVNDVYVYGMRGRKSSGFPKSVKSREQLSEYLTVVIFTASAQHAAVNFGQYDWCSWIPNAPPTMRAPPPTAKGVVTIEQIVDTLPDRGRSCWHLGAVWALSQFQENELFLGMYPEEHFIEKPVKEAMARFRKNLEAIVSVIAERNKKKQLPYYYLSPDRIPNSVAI
Method: This assay examines the ability of a compound to inhibit leukotriene B4 Production from human blood stimulated with calcium ionophore. As this production of leukotriene B4 is mediated via the activation of the 5-lipoxygenase enzyme, this assay is predictive of a compound's ability to inhibit the human 5-lipoxygenase enzyme.
The procedure for the assay is as follows. Blood is drawn from normal human volunteers into tubes containing heparin. 1 ml of the heparinized blood is pipetted into a 1.5 ml polypropylene tube. To this sample is added either different concentrations of the test compound (5 μl) dissolved in DMSO or 5 μl of DMSO as a vehicle control. These samples are incubated in a water bath, at […] for 15 min. […] From this a percent inhibition of LTB4 production by each concentration of test compound is calculated and the IC50 for inhibition of LTB4 production for each test compound is determined.

T1 sequence (P35367 whole entry): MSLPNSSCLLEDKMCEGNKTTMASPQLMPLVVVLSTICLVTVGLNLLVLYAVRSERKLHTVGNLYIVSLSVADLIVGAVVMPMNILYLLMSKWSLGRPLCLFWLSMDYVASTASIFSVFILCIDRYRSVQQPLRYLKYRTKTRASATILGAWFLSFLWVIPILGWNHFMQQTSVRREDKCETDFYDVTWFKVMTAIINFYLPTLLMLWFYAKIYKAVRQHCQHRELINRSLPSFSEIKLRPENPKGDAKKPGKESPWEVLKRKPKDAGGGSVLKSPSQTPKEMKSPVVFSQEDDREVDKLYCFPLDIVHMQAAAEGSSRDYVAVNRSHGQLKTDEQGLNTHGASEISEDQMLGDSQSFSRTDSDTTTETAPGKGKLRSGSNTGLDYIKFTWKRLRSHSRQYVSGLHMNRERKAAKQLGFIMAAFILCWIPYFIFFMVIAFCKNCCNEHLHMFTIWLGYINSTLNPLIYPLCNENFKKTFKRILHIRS

Ki (human cloned H1 receptor) [µM] | IC50 [1] [µM] | SMILES
0.13 | 3.63 | C[C@@H](c1ccc(OCCN2CCN(C(c3ccc(F)cc3)c3ccc(F)cc3)CC2)cc1)N(O)C(N)=O (racemic) [Compound 11, amino-N-{[4-(2-{4-[bis(4-fluorophenyl)methyl]piperazinyl}ethoxy)phenyl]ethyl}-N-hydroxyamide]
0.008 | 1.47 | NC(=O)N(O)CCOCCN1CCN([C@@H](c2ccccc2)c2ccc(Cl)cc2)CC1 [Compound 22, N-[2-(2-{4-[(1R)(4-chlorophenyl)phenylmethyl]piperazinyl}ethoxy)ethyl] amino-N-hydroxyamide]
